Patent publication US20080161309A1, “Novel Compounds” (priority 2004, published 2008)
Where a name gives a salt, the structure may show the parent alone. Read-outs that look alike come from different tables or passages of the source.

Legend:
[1] = tested on: capsaicin-induced mechanical allodynia; experiment: Rat model of capsaicin-induced mechanical allodynia; assay type: in vivo; conditions: sc, read-out: % Inhibition of allodynia
Protocol: Compounds of the present invention may be assayed for their ability to treat fibromylagia—like pain in a rat model of capsaicin-induced mechanical allodynia (e.g., Sluka, K A, (2002) J of Neuroscience, 22(13): 5687-5693). For example, a rat model of capsaicin-induced mechanical allodynia) was be carried out as follows:
On day 0, male Sprague-Dawley rats (˜150 g) in the dark cycle were placed in suspended wire-bottom cages and allowed to acclimate for 0.5 hour in a darkened, quiet room. The day 0 paw withdrawal threshold (PWT) was determined on the left hind paw by Von Frey hair assessment using the Dixon up and down method. After assessment, the plantar muscle of the right hind paw was injected with 100 μl capsaicin (0.25% (w/v) in 10% ethanol, 10% Tween 80, in sterile saline). On day 6 the PWT of the left hindpaw (contralateral from injection site) was determined for each animal. Animals from the day 6 prereads with PWT≦11.7 g were considered allodynic responders and were regrouped so that each cage had similar mean PWT values. On day 7, responders were dosed subcutaneously with 10 mg compound/kg body weight, or with vehicle alone. The vehicle was phosphate buffered saline containing 2% Cremophor® EL (BASF). The contralateral PWT values were determined at 1 hour after the single dose, with the investigator blinded to the dosing scheme.
In addition, the day 6 PWT was subtracted from the day 0 PWT to give the baseline window of allodynia present in each animal.

[2] = biological target: T1, human norepinephrine transporter (hNET) (Homo sapiens, UniProt P23975); experiment: hNET receptor binding, [125I]-RTI-55, HEK-293 membranes; conditions: Cheng-Prusoff, read-out: NET Ki
T1 construct: expressed in transfected cells; host or cells: HEK-293, membranes
Protocol: Cell pastes of HEK-293 cells transfected with a human norepinephrine transporter cDNA were prepared. The cell pastes were resuspended in 400 to 700 ml of Krebs-HEPES assay buffer (25 mM HEPES, 122 mM NaCl, 3 mM KCl, 1.2 mM MgSO4, 1.3 mM CaCl2, and 11 mM glucose, pH 7.4) with a Polytron homogenizer at setting 7 for 30 seconds. Aliquots of membranes (5 mg/ml protein) were stored in liquid nitrogen until used.
The binding assay was set up in Beckman deep-well polypropylene plates with a total volume of 250 μl containing: drug (10^−5M to 10^−12M), cell membranes, and […] [^125I]-RTI-55 (Perkin Elmer, NEX-272; specific activity 2200 Ci/mmol). The reaction was incubated by gentle agitation for 90 minutes at room temperature and was terminated by filtration through Whatman GF/C filter plates using a Brandel 96-well plate harvester. Scintillation fluid (100 μl) was added to each well, and bound [^125I]-RTI-55 was determined using a Wallac Trilux Beta Plate Counter. Test compounds were run in duplicate, and specific binding was defined as the difference between binding in the presence and absence of 10 μM desipramine.
Excel and GraphPad Prism software were used for data calculation and analysis. IC50 values were converted to Ki values using the Cheng-Prusoff equation. The Ki values (nM) for the hNET are reported below in Table 1.

[3] = biological target: T2, human serotonin transporter (hSERT) (Homo sapiens, UniProt P31645); experiment: hSERT receptor binding, [125I]-RTI-55, HEK-293 membranes
T2 construct: expressed in transfected cells; host or cells: HEK-293, membranes
Protocol: Cell pastes of HEK-293 cells transfected with a human serotonin transporter cDNA were prepared. […] Aliquots of membranes (−2.5 mg/ml protein) were stored in liquid nitrogen until used.
The reaction was incubated and gently agitated for 90 minutes at room temperature, and terminated by removal of assay volume. […] Test compounds were run in duplicate, and specific binding was defined as the difference between binding in the presence and absence of 10 μM citalopram. Excel and GraphPad Prism software were used for data calculation and analysis. IC50 values were converted to Ki values using the Cheng-Prusoff equation.

[4] = male Sprague-Dawley rats, 10 mg/kg subcutaneously, PWT 1 hour after single dose, mean of eight animals, normalized for vehicle
[5] = [125I]-RTI-55, HEK-293 membranes, Cheng-Prusoff, read-out: SERT Ki

T2 sequence (P31645 whole entry): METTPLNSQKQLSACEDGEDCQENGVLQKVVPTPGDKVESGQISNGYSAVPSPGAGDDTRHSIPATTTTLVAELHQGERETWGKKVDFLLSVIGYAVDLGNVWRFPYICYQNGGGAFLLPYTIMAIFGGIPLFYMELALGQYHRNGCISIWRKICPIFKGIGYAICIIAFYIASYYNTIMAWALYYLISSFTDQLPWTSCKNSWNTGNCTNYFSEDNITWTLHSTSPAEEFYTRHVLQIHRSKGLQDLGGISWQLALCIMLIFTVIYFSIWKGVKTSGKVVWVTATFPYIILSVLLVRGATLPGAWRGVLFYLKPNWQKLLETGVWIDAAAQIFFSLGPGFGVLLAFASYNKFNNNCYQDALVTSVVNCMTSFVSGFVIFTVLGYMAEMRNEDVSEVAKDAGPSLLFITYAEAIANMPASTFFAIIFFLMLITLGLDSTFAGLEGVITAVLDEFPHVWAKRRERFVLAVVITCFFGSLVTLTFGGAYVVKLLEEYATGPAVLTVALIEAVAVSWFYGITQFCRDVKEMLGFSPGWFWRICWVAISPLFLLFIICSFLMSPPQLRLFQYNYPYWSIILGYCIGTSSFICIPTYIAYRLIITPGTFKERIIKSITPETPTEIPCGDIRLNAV
T1 sequence (P23975 whole entry): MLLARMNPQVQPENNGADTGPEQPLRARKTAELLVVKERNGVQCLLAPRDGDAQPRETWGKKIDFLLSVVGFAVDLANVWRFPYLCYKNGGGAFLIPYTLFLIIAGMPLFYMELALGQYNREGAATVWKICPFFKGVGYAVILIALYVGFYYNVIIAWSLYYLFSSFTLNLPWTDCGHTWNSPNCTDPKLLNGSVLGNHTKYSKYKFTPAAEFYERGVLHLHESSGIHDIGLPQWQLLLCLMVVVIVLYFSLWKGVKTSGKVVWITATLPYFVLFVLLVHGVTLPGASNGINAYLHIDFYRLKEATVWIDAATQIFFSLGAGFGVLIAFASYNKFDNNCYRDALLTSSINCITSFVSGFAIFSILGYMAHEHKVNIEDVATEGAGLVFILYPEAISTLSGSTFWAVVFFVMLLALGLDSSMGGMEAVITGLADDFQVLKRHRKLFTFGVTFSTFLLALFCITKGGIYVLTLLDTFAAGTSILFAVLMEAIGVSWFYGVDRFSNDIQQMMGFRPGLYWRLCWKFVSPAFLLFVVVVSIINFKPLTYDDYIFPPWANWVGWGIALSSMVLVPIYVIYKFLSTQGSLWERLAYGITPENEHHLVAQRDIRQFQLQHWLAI

Row | Compound | inhibition in vivo at 10 mg/kg ([1]; 1 h) [%] | inhibition in vivo at 10 mg/kg [1, 4] [%] | Ki [2] [nM] | Ki [3, 5] [nM] | Ki [3] [nM]
1 | CCOc1ccccc1O[C@@H](c1ccccc1)[C@@H]1CNCCO1 [(2S)-2-[(1S)-(2-ethoxyphenoxy)(phenyl)methyl]morpholine, reference compound] | 17 |  |  |  | 
2 | Fc1cccc([C@H](Oc2ccc(F)cc2Cl)[C@@H]2CNCCO2)c1 [Example 37, (2S)-2-[(1S)-(2-chloro-4-fluorophenoxy)-(3-fluorophenyl)methyl]morpholine hydrochloride] |  | 80.3 | 13.1 | 52.2 | 
3 | Fc1cccc([C@H](Oc2cc(F)ccc2Cl)[C@@H]2CNCCO2)c1 [Example 41, (2S)-2-[(1S)-(2-Chloro-5-fluorophenoxy)(3-fluorophenyl)methyl] morpholine hydrochloride] |  | 21.1 | 7.3 | 126 | 
4 | COc1cc(Cl)ccc1O[C@@H](c1cccc(F)c1)[C@@H]1CNCCO1 [Example 45, (2S)-2-[(1S)-(4-Chloro-2-methoxyphenoxy)(3-fluorophenyl)methyl] morpholine hydrochloride] | 54.6 |  | 10.5 |  | 30
5 | COc1cc(F)ccc1O[C@@H](c1cccc(F)c1)[C@@H]1CNCCO1 [Example 46, (2S)-2-[(1S)-(4-Fluoro-2-methoxyphenoxy)(3-fluorophenyl)methyl] morpholine hydrochloride] |  | 46.1 | 15.1 | 222 | 
6 | Fc1cccc([C@H](Oc2cc(F)cc(F)c2Cl)[C@@H]2CNCCO2)c1 [Example 48, (2S)-2-[(1S)-(2-Chloro-3,5-difluorophenoxy)(3-fluorophenyl)methyl] morpholine hydrochloride] |  | 6.5 | 16.5 | 80 | 
7 | COc1cc(F)ccc1O[C@@H](c1cccc(Cl)c1)[C@@H]1CNCCO1 [Example 52, (2S)-2-[(1S)-(3-Chlorophenyl) (4-fluoro-2-methoxyphenoxy)methyl] morpholine hydrochloride] |  | 7 | 549 | 194 | 
8 | Cc1cccc([C@H](Oc2ccc(F)cc2Cl)[C@@H]2CNCCO2)c1 [Example 56, (2S)-2-[(1S)-(2-Chloro-4-fluorophenoxy)-m-tolyl-methyl] morpholine hydrochloride] |  | 35.6 | 13.6 | 152 | 
9 | COc1cccc([C@H](Oc2ccc(C)cc2OC)[C@@H]2CNCCO2)c1 [Example 62, (2S)-2-[(1S)-(2-Methoxy-4-methylphenoxy) (3-methoxyphenyl)methyl] morpholine hydrochloride] |  | 40.5 | 15.3 | 153 | 
10 | COc1cccc([C@H](Oc2ccc(F)cc2Br)[C@@H]2CNCCO2)c1 [Example 70, (2S)-2-[(1S)-(2-Bromo-4-fluorophenoxy) (3-methoxyphenyl)methyl] morpholine hydrochloride] |  | 27.3 | 11.9 | 111 | 
11 | COc1cc(C)ccc1O[C@@H](c1cccc(F)c1)[C@@H]1CNCCO1 [Example 79, (2S)-2-[(1S)-(3-Fluorophenyl)(2-methoxy-4-methylphenoxy)-methyl]morpholine hydrochloride] |  | 99.5 | 12.6 | 100 | 
12 | Fc1c(Cl)cccc1O[C@@H](c1ccccc1)[C@@H]1CNCCO1 [Example 80, (2S)-2-[(1S)-(3-chloro-2-fluoro-phenoxy)-phenyl-methyl]-morpholine fumarate salt] |  | 40 | 4.4 | 127 | 
13 | Fc1cc(F)c(O[C@@H](c2ccccc2)[C@@H]2CNCCO2)c(F)c1 [Example 86, (2S)-2-[(1S)-Phenyl-(2,4,6-trifluorophenoxy)methyl] morpholine fumarate] |  |  | 14.3 | 652 | 
14 | FC(F)(F)c1ccc(Cl)c(O[C@@H](c2ccccc2)[C@@H]2CNCCO2)c1 [Example 88, (2S)-2-[(1S)-(2-Chloro-5-trifluoromethylphenoxy)phenylmethyl] morpholine fumarate] |  |  | 420 | 760 | 
15 | COc1c(Cl)c(Cl)cc(Cl)c1O[C@@H](c1ccccc1)[C@@H]1CNCCO1 [Example 91, (2S)-2-[(1S)-Phenyl-(3,4,6-trichloro-2-methoxyphenoxy)methyl] morpholine fumarate] |  |  | 228 | 26.7 | 
16 | COc1c(Cl)cccc1O[C@@H](c1ccccc1)[C@@H]1CNCCO1 [Example 92, (2S)-2-[(1S)-(3-Chloro-2-methoxyphenoxy)phenylmethyl] morpholine fumarate] |  |  | 86.8 | 71.7 | 
17 | COc1cc(Br)ccc1O[C@@H](c1ccccc1)[C@@H]1CNCCO1 [Example 94, (2S)-2-[(1S)-(4-Bromo-2-methoxyphenoxy)phenylmethyl] morpholine fumarate] |  |  | 12.1 | 22.3 | 
18 | COc1ccc(O[C@@H](c2ccccc2)[C@@H]2CNCCO2)c(Cl)c1 [Example 96, (2S)-2-[(1S)-(2-Chloro-4-methoxyphenoxy)phenylmethyl] morpholine fumarate] |  |  | 25.7 | 47 | 
19 | COc1ccc(Cl)c(O[C@@H](c2ccccc2)[C@@H]2CNCCO2)c1 [Example 97, (2S)-2-[(1S)-(2-Chloro-5-methoxyphenoxy)phenylmethyl] morpholine fumarate] |  |  | 42.5 | 134 | 
20 | Clc1cc(Cl)c(O[C@@H](c2ccccc2)[C@@H]2CNCCO2)c(Cl)c1 [Example 98, (2S)-2-[(1S)-Phenyl-(2,4,6-trichlorophenoxy)methyl] morpholine fumarate] |  |  | 755 | 49.6 | 
21 | COc1cc(C(F)(F)F)ccc1O[C@@H](c1ccccc1)[C@@H]1CNCCO1 [Example 99, (2S)-2-[(1S)-(2-Methoxy-4-trifluoromethylphenoxy)phenylmethyl] morpholine fumarate] |  |  | 188 | 35.8 | 
22 | COc1cc(Cl)ccc1O[C@@H](c1cccc(Cl)c1)[C@@H]1CNCCO1 [Example 100, (2S)-2-[(1S)-(4-Chloro-2-methoxyphenoxy) (3-chloro phenyl)methyl] morpholine fumarate] |  |  | 33 | 32.9 | 
23 | COc1cc(C)ccc1O[C@@H](c1cccc(Cl)c1)[C@@H]1CNCCO1 [Example 101, (2S)-2-[(1S)-(3-Chlorophenyl) (2-methoxy-4-methyl phenoxy)methyl] morpholine fumarate] |  |  | 19.4 | 67.1 | 
24 | COc1cc(Cl)ccc1O[C@@H](c1ccccn1)[C@@H]1CNCCO1 [Example 103, (2S)-2-[(1S)-(4-chloro-2-methoxyphenoxy)(pyridin-2-yl)methyl]morpholine fumarate] |  |  | 12.8 | 101 | 
25 | Fc1cc(Cl)ccc1O[C@@H](c1ccccn1)[C@@H]1CNCCO1 [Example 104, (2S)-2-[(1S)-(4-chloro-2-fluorophenoxy)(pyridin-2-yl)methyl]morpholine fumarate] |  |  | 21.1 | 486 | 
26 | COc1ccc(O[C@@H](c2ccccn2)[C@@H]2CNCCO2)c(Cl)c1 [Example 106, (2S)-2-[(1S)-(2-chloro-4-methoxyphenoxy)(pyridin-2-yl)methyl]morpholine fumarate] |  |  | 13.8 | 216 | 
27 | (2S)-2-[(1S)-Pentachlorophenyloxy phenyl methyl] morpholine fumarate [Example 95] |  |  | 587 | 39.6 | 
